Data from paper PMC6437697 (Journal of Medicinal Chemistry, 2019).

Key:
Assay in all cases: KINOMEscan
Type in all cases: binding
Details in all cases: read-out: % control activity remaining
[1] = biological target: T1, p38-alpha (Homo sapiens, UniProt Q16539)
T1 construct: purchased Eurofins DiscoverX KINOMEscan

[2] = biological target: T2, JAK1(JH2domain-pseudokinase) (Homo sapiens, UniProt P23458)
T2 construct: JAK1(JH2domain-pseudokinase); purchased Eurofins DiscoverX KINOMEscan

[3] = biological target: T3, MYO3B (Homo sapiens, UniProt Q8WXR4)
T3 construct: purchased Eurofins DiscoverX KINOMEscan
T3 sequence (Q8WXR4 1-1341): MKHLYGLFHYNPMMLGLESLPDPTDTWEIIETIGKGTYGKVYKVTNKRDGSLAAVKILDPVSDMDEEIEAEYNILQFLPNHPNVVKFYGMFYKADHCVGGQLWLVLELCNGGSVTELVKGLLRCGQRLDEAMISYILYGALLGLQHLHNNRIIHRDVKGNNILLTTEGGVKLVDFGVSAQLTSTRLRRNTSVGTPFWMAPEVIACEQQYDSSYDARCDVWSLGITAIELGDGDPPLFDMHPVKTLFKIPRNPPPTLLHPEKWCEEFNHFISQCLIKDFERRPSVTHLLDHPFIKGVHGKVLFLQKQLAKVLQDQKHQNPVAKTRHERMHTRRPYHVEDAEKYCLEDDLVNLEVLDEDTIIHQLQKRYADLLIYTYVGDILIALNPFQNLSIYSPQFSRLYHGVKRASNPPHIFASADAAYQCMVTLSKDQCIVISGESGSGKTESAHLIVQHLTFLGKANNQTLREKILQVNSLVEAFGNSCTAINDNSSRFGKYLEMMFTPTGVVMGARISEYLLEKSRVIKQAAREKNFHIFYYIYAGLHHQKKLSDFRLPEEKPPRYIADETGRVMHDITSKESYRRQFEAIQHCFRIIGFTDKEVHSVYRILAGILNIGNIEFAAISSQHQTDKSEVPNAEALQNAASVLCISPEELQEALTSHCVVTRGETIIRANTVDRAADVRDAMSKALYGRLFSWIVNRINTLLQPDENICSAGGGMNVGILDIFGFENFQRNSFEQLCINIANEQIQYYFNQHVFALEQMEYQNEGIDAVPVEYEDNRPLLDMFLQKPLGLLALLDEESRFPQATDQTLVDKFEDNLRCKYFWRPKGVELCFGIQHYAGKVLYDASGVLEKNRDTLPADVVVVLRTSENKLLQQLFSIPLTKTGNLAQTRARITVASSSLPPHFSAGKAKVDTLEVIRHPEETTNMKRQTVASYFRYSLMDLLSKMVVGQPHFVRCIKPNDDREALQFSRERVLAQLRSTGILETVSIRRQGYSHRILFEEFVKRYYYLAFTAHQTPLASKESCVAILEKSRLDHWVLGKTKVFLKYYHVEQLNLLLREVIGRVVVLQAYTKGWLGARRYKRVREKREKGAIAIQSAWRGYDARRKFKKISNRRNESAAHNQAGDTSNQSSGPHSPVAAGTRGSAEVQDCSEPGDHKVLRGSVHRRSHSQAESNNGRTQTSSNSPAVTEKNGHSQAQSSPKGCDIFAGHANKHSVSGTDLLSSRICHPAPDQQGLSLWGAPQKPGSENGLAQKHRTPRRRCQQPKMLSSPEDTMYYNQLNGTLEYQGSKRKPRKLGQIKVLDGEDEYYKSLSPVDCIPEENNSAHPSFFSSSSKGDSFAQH

[4] = biological target: T4, PAK7 (Homo sapiens, UniProt Q9P286)
T4 construct: purchased Eurofins DiscoverX KINOMEscan

[5] = biological target: T5, ERK8 (Homo sapiens, UniProt Q8TD08)
T5 construct: purchased Eurofins DiscoverX KINOMEscan
T5 sequence (Q8TD08 1-544): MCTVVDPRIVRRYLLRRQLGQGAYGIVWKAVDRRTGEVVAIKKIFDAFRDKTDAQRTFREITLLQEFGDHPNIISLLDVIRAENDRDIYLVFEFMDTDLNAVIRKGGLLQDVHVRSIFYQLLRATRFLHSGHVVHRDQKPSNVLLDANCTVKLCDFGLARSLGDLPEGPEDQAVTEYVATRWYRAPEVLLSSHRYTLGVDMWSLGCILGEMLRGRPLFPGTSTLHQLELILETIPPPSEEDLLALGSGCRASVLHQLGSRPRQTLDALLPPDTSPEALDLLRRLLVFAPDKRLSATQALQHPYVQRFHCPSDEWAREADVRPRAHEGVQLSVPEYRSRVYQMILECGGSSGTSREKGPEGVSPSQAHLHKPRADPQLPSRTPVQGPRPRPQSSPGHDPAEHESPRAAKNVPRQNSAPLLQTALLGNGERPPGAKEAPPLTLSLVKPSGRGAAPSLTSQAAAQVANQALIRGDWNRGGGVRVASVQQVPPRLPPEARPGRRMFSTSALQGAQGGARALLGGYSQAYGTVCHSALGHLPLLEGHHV

[6] = biological target: T6, MAP4K3 (Homo sapiens, UniProt Q8IVH8)
T6 construct: purchased Eurofins DiscoverX KINOMEscan
T6 sequence (Q8IVH8 1-894): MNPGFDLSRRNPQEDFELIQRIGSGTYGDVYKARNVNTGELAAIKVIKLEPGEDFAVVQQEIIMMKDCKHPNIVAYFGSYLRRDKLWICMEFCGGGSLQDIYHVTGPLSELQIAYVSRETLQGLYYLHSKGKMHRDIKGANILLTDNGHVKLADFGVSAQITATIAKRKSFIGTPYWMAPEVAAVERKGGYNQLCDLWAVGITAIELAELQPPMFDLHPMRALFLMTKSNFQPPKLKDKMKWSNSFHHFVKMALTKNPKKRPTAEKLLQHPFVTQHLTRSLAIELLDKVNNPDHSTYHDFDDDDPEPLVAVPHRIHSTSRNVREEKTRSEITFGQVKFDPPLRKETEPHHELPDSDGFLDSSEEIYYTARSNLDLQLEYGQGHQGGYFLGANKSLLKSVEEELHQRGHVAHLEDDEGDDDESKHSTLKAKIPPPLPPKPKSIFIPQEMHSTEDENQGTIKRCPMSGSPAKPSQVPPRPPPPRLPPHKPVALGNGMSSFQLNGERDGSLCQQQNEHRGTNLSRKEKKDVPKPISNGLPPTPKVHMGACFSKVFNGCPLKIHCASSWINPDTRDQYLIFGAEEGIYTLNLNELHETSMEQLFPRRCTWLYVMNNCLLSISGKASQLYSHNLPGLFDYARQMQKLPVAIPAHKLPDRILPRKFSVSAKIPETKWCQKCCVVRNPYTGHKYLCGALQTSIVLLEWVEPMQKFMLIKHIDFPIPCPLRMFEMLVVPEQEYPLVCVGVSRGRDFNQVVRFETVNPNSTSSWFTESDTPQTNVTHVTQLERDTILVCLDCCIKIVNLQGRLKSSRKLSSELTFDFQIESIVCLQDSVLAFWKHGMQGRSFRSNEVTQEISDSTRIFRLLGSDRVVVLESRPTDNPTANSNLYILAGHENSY

[7] = biological target: T7, CDC2L1 (Homo sapiens, UniProt P21127)
T7 construct: purchased Eurofins DiscoverX KINOMEscan
T7 sequence (P21127 whole entry): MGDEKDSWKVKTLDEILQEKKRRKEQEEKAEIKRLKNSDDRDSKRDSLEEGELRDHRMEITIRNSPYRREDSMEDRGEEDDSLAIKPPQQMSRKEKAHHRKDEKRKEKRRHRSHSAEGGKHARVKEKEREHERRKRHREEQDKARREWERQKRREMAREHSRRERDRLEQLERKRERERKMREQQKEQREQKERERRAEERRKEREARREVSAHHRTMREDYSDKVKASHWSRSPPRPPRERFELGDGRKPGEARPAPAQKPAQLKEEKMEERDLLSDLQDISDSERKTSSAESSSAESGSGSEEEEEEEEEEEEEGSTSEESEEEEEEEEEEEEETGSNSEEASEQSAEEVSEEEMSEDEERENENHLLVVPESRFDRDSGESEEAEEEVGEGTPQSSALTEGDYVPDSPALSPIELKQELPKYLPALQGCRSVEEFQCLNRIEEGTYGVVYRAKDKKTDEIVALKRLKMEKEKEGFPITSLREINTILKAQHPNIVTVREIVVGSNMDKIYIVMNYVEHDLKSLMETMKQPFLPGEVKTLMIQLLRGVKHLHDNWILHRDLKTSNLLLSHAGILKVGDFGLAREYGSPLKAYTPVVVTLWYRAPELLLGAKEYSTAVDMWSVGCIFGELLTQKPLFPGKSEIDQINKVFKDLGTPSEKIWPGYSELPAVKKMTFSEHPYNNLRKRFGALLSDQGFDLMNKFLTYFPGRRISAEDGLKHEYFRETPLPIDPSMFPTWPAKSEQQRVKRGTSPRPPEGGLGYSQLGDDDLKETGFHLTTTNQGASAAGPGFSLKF

T2 sequence (P23458 583-855 limits assumed): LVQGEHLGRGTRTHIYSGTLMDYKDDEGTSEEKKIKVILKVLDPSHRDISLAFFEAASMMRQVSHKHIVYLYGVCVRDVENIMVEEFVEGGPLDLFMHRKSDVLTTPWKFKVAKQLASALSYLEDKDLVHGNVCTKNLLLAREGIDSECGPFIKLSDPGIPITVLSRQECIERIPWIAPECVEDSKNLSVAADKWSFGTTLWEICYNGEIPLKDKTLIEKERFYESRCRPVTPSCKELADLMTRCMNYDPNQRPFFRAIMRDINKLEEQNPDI
T1 sequence (Q16539 whole entry): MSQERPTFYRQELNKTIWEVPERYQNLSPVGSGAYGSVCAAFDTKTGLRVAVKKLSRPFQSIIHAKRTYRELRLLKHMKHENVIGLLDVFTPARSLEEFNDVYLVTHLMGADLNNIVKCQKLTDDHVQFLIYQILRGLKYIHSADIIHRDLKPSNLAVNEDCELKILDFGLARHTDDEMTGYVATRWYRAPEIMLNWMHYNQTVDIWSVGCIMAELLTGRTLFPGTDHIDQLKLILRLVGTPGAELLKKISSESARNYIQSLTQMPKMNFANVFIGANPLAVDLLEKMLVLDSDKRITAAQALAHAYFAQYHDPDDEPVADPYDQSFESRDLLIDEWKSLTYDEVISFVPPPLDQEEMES
T4 sequence (Q9P286 whole entry): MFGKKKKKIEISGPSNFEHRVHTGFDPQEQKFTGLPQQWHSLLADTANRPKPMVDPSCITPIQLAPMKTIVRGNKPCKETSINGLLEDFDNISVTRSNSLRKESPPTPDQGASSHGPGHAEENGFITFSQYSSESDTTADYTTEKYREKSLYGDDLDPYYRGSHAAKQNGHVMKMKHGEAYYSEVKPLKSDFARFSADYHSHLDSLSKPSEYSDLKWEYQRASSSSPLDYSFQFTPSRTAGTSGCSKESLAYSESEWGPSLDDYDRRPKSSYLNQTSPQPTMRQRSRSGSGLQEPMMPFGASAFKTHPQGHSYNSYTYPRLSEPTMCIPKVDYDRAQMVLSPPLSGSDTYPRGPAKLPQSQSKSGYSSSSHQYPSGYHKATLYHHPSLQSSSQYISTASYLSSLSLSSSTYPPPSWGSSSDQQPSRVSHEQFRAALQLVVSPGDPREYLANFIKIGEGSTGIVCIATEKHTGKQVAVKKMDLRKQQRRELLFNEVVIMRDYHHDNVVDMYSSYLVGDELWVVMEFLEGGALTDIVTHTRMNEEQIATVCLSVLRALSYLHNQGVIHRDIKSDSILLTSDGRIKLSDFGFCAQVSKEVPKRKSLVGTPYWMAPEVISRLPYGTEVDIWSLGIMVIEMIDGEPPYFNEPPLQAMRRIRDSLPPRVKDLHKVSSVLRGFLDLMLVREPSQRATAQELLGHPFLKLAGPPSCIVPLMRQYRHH

| SMILES | remaining binding at 1 µM [1] | remaining binding at 1 µM [2] | remaining binding at 1 µM [3] | remaining binding at 1 µM [4] | remaining binding at 1 µM [5] | remaining binding at 1 µM [6] | remaining binding at 1 µM [7] |
| --- | --- | --- | --- | --- | --- | --- | --- |
| Clc1cc(NCC2CC2)c2ncc(-c3ccc4[nH]ncc4c3)n2n1 [compound 2, 6-Chloro-N-(cyclopropylmethyl)-3-(1H-indazol-5-yl)imidazo[1,2-b]pyridazin-8-amine] | 100% | 93% | 82% | 98% | 87% | 71% | 100% |
| O=C(CN1CCOCC1)N[C@H]1CC[C@H](Nc2cc(Cl)nn3c(-c4ccc5[nH]ncc5c4)cnc23)CC1 [compound 26] | 99% | 100% | 92% | 93% | 81% | 92% | 100% |
| CN1CCC(CNc2cc(Cl)nn3c(-c4cc5nc(Nc6ccccc6)[nH]c5cc4F)cnc23)CC1 [compound 31, 6-Chloro-3-(6-fluoro-2-(phenylamino)-1H-benzo[d]imidazol-5-yl)-N-((1-methylpiperidin-4-yl)methyl)imidazo[1,2-b]pyridazin-8-amine] | 95% | 82% | 73% | 95% | 100% | 99% | 92% |
